Literature values as cited in patent publication US20020150627A1, “Composition containing creatine and phosphorus” (priority 2001, published 2002).
Where two headings read alike, the source gives them in different places.

Columns and labels:
subjects = settings: for Increase power output compared to placebo according to Wallace et al: four times daily for 5 days
skeletal muscle = settings: 4×5 gram creatine per day for five to six days
[1] = 1000 mg four times daily for 5 days

SMILES	VO2 max elevated (subjects; [1])	Ventilatory anaerobic threshold elevated (subjects; [1])	Increase power output compared to placebo according to Wallace et al (subjects)	Increase power output compared to placebo according to Wallace et al (subjects; listed as phosphate)	Increase power output compared to placebo according to Wallace et al (subjects; listed as Creatine, monohydrate)	Increase power output compared to placebo according to Wallace et al (subjects; listed as creatine, monohydrate)	Increase of skeletal muscle creatine content (average) (skeletal muscle)	Phosphocreatine share of the increase in skeletal muscle creatine content (skeletal muscle)
O=P([O-])([O-])[O-].[Na+].[Na+].[Na+] [Phosphate, tribasic sodium phosphate]	8%	10%	3%	3%				
CN(CC(=O)O)C(=N)N.O [creatine monohydrate]					3%	3%	20%	20%
